Where two headings read alike, the source gives them in different places. A value given as a limit tells only on which side of the number the result lay.

The target in experiment [1] is T1, wild-type Epidermal Growth Factor Receptor (EGFR) (Homo sapiens, UniProt P00533).
T1 construct: a fragment of human EGFR (amino acids R669 to A1210); made in house; host or cells: Sf9 insect cells
Briefly: WT-EGFR Kinase Assay (TR-FRET, 2 mM ATP). Type of experiment: biochemical. A digest of the protocol:
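GST-fused human EGFR fragment (R669-A1210) from Sf9 cells, typically 7.6 pg/μL, pre-incubated with compound 15 min at 22° C in Hepes pH 7.0 buffer with MgCl2, DTT and vanadate; biotinylated peptide substrate. After EDTA stop, phosphopeptide detected by TR-FRET (anti-phosphotyrosine Tb-cryptate/streptavidin-XL665), 665/620 nm emission ratio.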
On the technique in general: Time-resolved FRET reads energy transfer from a long-lived donor to a nearby acceptor.

Experiment [2] deals with T2, full-length human CSNK1D (Homo sapiens, UniProt P48730).
T2 construct: N-terminal Glutathion-S-Transferase (GST) and full-length human CSNK1D; purchased Life Technologies PV3665; host or cells: baculovirus infected insect cells
Kind of experiment: CSNK1D Assay (ADP-Glo, 1 μM ATP). Type of experiment: biochemical. The settings on record: Table 3, read-out: CSNK1D IC50 [mol/l] (median). The gist of the method:
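ADP-Glo luminescence reports ADP generated by GST-fused full-length human CSNK1D (insect-cell expressed, about 0.5 ng/μL) acting on a biotinylated peptide at 1 μM ATP. Test compounds were pre-bound to enzyme 15 min at 22° C in 50 mM HEPES pH 7.5.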

[3] abbreviates: read-out: EGFR Wildtyp 2 mM ATP IC50 [mol/l] (median), Table 4.
Setting [4] is: EGFR Wildtyp 2 mM ATP IC50 [mol/l] (median), Table 4.

T2 sequence (P48730 whole entry): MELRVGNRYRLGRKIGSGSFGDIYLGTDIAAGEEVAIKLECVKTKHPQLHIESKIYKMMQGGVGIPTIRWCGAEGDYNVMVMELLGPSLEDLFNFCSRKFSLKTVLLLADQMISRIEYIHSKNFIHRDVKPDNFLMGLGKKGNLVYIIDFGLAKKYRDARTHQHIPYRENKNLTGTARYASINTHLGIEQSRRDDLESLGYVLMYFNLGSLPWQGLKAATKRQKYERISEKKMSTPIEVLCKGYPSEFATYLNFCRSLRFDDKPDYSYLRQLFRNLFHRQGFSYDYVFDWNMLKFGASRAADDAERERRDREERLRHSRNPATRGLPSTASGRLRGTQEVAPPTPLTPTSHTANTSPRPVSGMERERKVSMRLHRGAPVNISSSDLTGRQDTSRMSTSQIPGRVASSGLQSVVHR
T1 sequence (P00533 669-1210): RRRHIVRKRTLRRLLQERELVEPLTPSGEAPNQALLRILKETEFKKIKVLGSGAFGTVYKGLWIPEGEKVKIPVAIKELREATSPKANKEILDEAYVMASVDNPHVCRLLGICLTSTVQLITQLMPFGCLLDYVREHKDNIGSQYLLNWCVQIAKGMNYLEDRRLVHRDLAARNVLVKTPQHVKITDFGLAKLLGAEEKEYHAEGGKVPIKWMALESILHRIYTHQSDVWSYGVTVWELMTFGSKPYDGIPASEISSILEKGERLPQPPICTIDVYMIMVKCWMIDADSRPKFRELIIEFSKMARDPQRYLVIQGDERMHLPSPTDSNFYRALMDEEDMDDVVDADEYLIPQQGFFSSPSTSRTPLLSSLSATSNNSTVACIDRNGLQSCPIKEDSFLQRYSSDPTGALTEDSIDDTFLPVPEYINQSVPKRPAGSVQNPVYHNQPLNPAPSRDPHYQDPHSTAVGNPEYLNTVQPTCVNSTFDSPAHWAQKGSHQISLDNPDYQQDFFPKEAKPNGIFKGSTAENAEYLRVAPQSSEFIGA

For the compound `O=C(Nc1cc(-c2[nH]c3cc(F)cnc3c2-c2ccccn2)ccn1)C(CC(F)F)c1ccc(F)cc1` (single isomer, unassigned; (-)) [Example 18, (−)-4,4-difluoro-2-(4-fluorophenyl)-N-{4-[6-fluoro-3-(pyridin-2-yl)-1H-pyrrolo[3,2-b]pyridin-2-yl]pyridin-2-yl}butanamide], the IC50 was > 20000 nM in experiment [1] (setting [3]) and 25.4 nM in experiment [2].
For the compound `O=C(Nc1cc(-c2[nH]c3ccc(F)nc3c2-c2cc(F)ccn2)ccn1)C(CC(F)F)c1ccc(F)cc1` (single isomer, unassigned) [Example 96, (2R or S)-4,4-difluoro-N-{4-[5-fluoro-3-(4-fluoropyridin-2-yl)-1H-pyrrolo[3,2-b]pyridin-2-yl]pyridin-2-yl}-2-(4-fluorophenyl)butanamide], the IC50 in experiment [1] (setting [4]) is > 20000 nM; in experiment [2] it was 10.4 nM.
The corresponding values for `O=C(Nc1cc(-c2[nH]c3c(OCC(F)(F)F)ncnc3c2-c2ccccn2)ccn1)C(CC(F)F)c1ccc(F)cc1` (single isomer, unassigned) [Example 123, (2R or S)-4,4-difluoro-2-(4-fluorophenyl)-N-{4-[7-(pyridin-2-yl)-4-(2,2,2-trifluoroethoxy)-5H-pyrrolo[3,2-d]pyrimidin-6-yl]pyridin-2-yl}butanamide] are > 20000 nM and 4.49 nM.
As to `O=C(Nc1cc(-c2[nH]c3cc(F)cnc3c2-c2ccccc2)ccn1)C(CC(F)F)c1ccc(F)cc1` (single isomer, unassigned; (-)) [Example 20, (−)-4,4-difluoro-2-(4-fluorophenyl)-N-[4-(6-fluoro-3-phenyl-1H-pyrrolo[3,2-b]pyridin-2-yl)pyridin-2-yl]butanamide], the IC50 in experiment [1] (setting [4]) is > 20000 nM; in experiment [2], 47.8 nM.
The corresponding values for `O=C(Nc1cc(-c2[nH]c3c(OCC(F)(F)F)ncnc3c2-c2ccccn2)ccn1)C(CC(F)(F)F)c1ccc(F)cc1` (single isomer, unassigned) [Example 126, (2R or S)-4,4,4-trifluoro-2-(4-fluorophenyl)-N-{4-[7-(pyridin-2-yl)-4-(2,2,2-trifluoroethoxy)-5H-pyrrolo[3,2-d]pyrimidin-6-yl]pyridin-2-yl}butanamide] are > 20000 nM and 7.84 nM.
The corresponding values for `O=C(Nc1cc(-c2[nH]c3c(OC4CC4)cc(F)nc3c2-c2ccccn2)ccn1)C(CC(F)F)c1ccc(F)cc1` (single isomer, unassigned) [Example 43, N-{4-[7-(cyclopropyloxy)-5-fluoro-3-(pyridin-2-yl)-1H-pyrrolo[3,2-b]pyridin-2-yl]pyridin-2-yl}-4,4-difluoro-2-(4-fluorophenyl)butanamide] are > 20000 nM and 7.64 nM.
The corresponding values for `O=C(Nc1cc(-c2[nH]c3c(C4CCCO4)cc(F)nc3c2-c2ccccn2)ccn1)C(CC(F)F)c1ccc(F)cc1` (racemic) [Example 114, (2RS)-4,4-difluoro-2-(4-fluorophenyl)-N-(4-{5-fluoro-3-(pyridin-2-yl)-7-[(2RS)-tetrahydrofuran-2-yl]-1H-pyrrolo[3,2-b]pyridin-2-yl}pyridin-2-yl)butanamide] are > 20000 nM and 8.03 nM.
Consider `O=C(Nc1cc(-c2[nH]c3c(C4CCCO4)cc(F)nc3c2-c2ccccn2)ccn1)C(CC(F)F)c1ccc(F)cc1` (single isomer, unassigned) [Example 118, (2R or S)-4,4-difluoro-N-(4-{5-fluoro-7-[(2R or S)-oxolan-2-yl]-3-(pyridin-2-yl)-1H-pyrrolo[3,2-b]pyridin-2-yl}pyridin-2-yl)-2-(4-fluorophenyl)butanamide], for which the IC50 in experiment [1] (setting [4]) was > 20000 nM; in experiment [2], 125 nM.
With `O=C(Nc1cc(-c2[nH]c3c(OCC(F)(F)F)ncnc3c2-c2ccccn2)ccn1)C(CC(F)F)c1ccc(F)cc1` (racemic) [Example 122, (2RS)-4,4-difluoro-2-(4-fluorophenyl)-N-{4-[7-(pyridin-2-yl)-4-(2,2,2-trifluoroethoxy)-5H-pyrrolo[3,2-d]pyrimidin-6-yl]pyridin-2-yl}butanamide], the results for the IC50 in experiment [1] (setting [4]) and in experiment [2] were > 20000 nM and 7.04 nM, respectively.
On the same counts, the results for `Cc1cnc2c(-c3ccccn3)c(-c3ccnc(NC(=O)C(CC(F)F)c4ccc(F)cc4)c3)[nH]c2c1` (racemic) [Example 7, 4,4-difluoro-2-(4-fluorophenyl)-N-{4-[6-methyl-3-(pyridin-2-yl)-1H-pyrrolo[3,2-b]pyridin-2-yl]pyridin-2-yl}butanamide] are > 20000 nM and 4.13 nM.
The corresponding values for `O=C(Nc1cc(-c2[nH]c3ccc(F)nc3c2-c2ccccn2)ccn1)[C@H](CC(F)F)c1ccc(F)cc1` (single isomer, unassigned) [Example 3] are > 20000 nM and 20.1 nM.
As for `O=C(Nc1cc(-c2[nH]c3ccc(F)nc3c2-c2ccc(F)cn2)ccn1)C(CC(F)F)c1ccc(F)cc1` (single isomer, unassigned; (-)) [Example 110, (−)-4,4-difluoro-N-{4-[5-fluoro-3-(5-fluoropyridin-2-yl)-1H-pyrrolo[3,2-b]pyridin-2-yl]pyridin-2-yl}-2-(4-fluorophenyl)butanamide], the figures for the IC50 in experiment [1] (setting [3]) and in experiment [2] were > 20000 nM and 43 nM, respectively.
Turning to `O=C(Nc1cc(-c2[nH]c3cccnc3c2-c2cccc(F)n2)ccn1)C(CC(F)F)c1ccc(F)cc1` (single isomer, unassigned; (-)) [Example 26, (−)-4,4-difluoro-2-(4-fluorophenyl)-N-{4-[3-(6-fluoropyridin-2-yl)-1H-pyrrolo[3,2-b]pyridin-2-yl]pyridin-2-yl}butanamide], the IC50 in experiment [1] (setting [4]) was > 20000 nM; in experiment [2] it was 50.7 nM.
Consider `O=C(Nc1cc(-c2[nH]c3ccc(F)nc3c2-c2cc(F)ccn2)ccn1)C(CC(F)F)c1ccc(F)cc1` (single isomer, unassigned) [Example 97, (2R or S)-4,4-difluoro-N-{4-[5-fluoro-3-(4-fluoropyridin-2-yl)-1H-pyrrolo[3,2-b]pyridin-2-yl]pyridin-2-yl}-2-(4-fluorophenyl)butanamide], for which the IC50 in experiment [1] (setting [3]) was > 20000 nM; in experiment [2], 67 nM.
In the case of `O=C(Nc1cc(-c2[nH]c3c(N4CCNCC4)ccnc3c2-c2ccccn2)ccn1)C(CC(F)F)c1ccc(F)cc1` (single isomer, unassigned) [Example 93, (2R or S)-4,4-difluoro-2-(4-fluorophenyl)-N-{4-[7-(piperazin-1-yl)-3-(pyridin-2-yl)-1H-pyrrolo[3,2-b]pyridin-2-yl]pyridin-2-yl}butanamide], the results for the IC50 in experiment [1] (setting [4]) and in experiment [2] were > 20000 nM and 17.3 nM, respectively.
The corresponding values for `COc1cnc2c(-c3ccccn3)c(-c3ccnc(NC(=O)C(CC(F)F)c4ccc(F)cc4)c3)[nH]c2n1` (stereo not drawn) [Example 101, 4,4-difluoro-2-(4-fluorophenyl)-N-{4-[3-methoxy-7-(pyridin-2-yl)-5H-pyrrolo[2,3-b]pyrazin-6-yl]pyridin-2-yl}butanamide] are > 20000 nM and 9.17 nM.
For the compound `Cc1ccc2[nH]c(-c3ccnc(NC(=O)C(CC(F)F)c4ccc(F)cc4)c3)c(-c3ccccn3)c2n1` (single isomer, unassigned) [Example 6, 4,4-difluoro-2-(4-fluorophenyl)-N-{4-[5-methyl-3-(pyridin-2-yl)-1H-pyrrolo[3,2-b]pyridin-2-yl]pyridin-2-yl}butanamide], the IC50 in experiment [1] (setting [3]) was > 20000 nM; in experiment [2], 89.7 nM.
On to `O=C(Nc1cc(-c2[nH]c3cc(F)cnc3c2-c2ccccn2)ccn1)C(CC(F)F)c1ccc(F)cc1` (racemic) [Example 16, 4,4-difluoro-2-(4-fluorophenyl)-N-{4-[6-fluoro-3-(pyridin-2-yl)-1H-pyrrolo[3,2-b]pyridin-2-yl]pyridin-2-yl}butanamide], for which the IC50 in experiment [1] (setting [4]) was > 20000 nM; in experiment [2], 4.57 nM.
On the same counts, the results for `O=C(Nc1cc(-c2[nH]c3nccnc3c2-c2ccccn2)ccn1)C(CC(F)F)c1ccc(F)cc1` (racemic) [Example 31, (2RS)-4,4-difluoro-2-(4-fluorophenyl)-N-{4-[7-(pyridin-2-yl)-5H-pyrrolo[2,3-b]pyrazin-6-yl]pyridin-2-yl}butanamide] are > 20000 nM and 7.81 nM.
With `CC(C)(O)c1cc(F)nc2c(-c3ccccn3)c(-c3ccnc(NC(=O)C(CC(F)F)c4ccc(F)cc4)c3)[nH]c12` (single isomer, unassigned) [Example 100, (2R or S)-4,4-difluoro-N-{4-[5-fluoro-7-(2-hydroxypropan-2-yl)-3-(pyridin-2-yl)-1H-pyrrolo[3,2-b]pyridin-2-yl]pyridin-2-yl}-2-(4-fluorophenyl)butanamide], the IC50 in experiment [1] (setting [3]) was > 20000 nM; in experiment [2], 46.3 nM.
Consider `O=C(Nc1cc(-c2[nH]c3c(CC4CC4)cc(F)nc3c2-c2ccccn2)ccn1)C(CC(F)F)c1ccc(F)cc1` (single isomer, unassigned) [Example 47, (2R or S)—N-{4-[7-(cyclopropylmethyl)-5-fluoro-3-(pyridin-2-yl)-1H-pyrrolo[3,2-b]pyridin-2-yl]pyridin-2-yl}-4,4-difluoro-2-(4-fluorophenyl)butanamide], for which the IC50 in experiment [1] (setting [4]) is > 20000 nM; in experiment [2], 59 nM.

For the origin of these results see patent US12692261B2, “Substituted heterocyclic compounds and therapeutic uses thereof” (Bayer Aktiengesellschaft, priority 2020, dated 2026).
